Where no end group is shown, it is not given here. The star is where a group is joined. Hexenoyl(3E) = CC/C=C/CC(=O)*
Legend:
[1] = metabolites have no residual biological activity; cited from earlier work
[2] = system: pig serum GH; assay: Intravenous GH-releasing potency in pigs (Example III); type: in vivo, pigs (Landrace x Yorkshire); conditions: 4 μg/kg
Experimental: This experiment was conducted to test the I.V. acute GH-releasing potency of (Hexenoyl trans-3)0 hGRF (1-29) NH2, a GRF analog, in a model physiologically close to human and to compare it to that of hGRF(1-29)NH2.
(Hexenoyl trans-3)0 hGRF (1-29) NH2 is a combination of the natural hGRF(1-29)NH2 and natural fatty acids. This study was a multidose, single I.V. injection study.
ADMINISTRATION: intravenous acute injection.
(§1) TEST SYSTEM: Landrace x Yorkshire pigs.
DESIGN: […] pigs (4 spare animals) were cannulated (a catheter surgically implanted in one jugular vein) within on week, before the study. On days 1 and 7, cannulated animals were randomly distributed into 7 groups (n=4 pigs per group).
Blood samples for pGH assay were collected every 20 min from 1 hour before to 5 hours after GRF injections, with additional samplings 10 and 30 min after injection (n=21 samples). Blood samples are allowed to clot at +4° C. Serum will be harvested by centrifugation, stored at −20° C. and submitted to pGH assays.

[3] = system: serum IGF-I; assay: Repeated S.C. administrations of GRF analogs, serum IGF-I levels in pigs (Example I, Experiments 1-3; radioimmunoassay); type: in vivo, pigs (Landrace x Yorkshire); conditions: for serum IGF-I, Day 1 (pretreatment): pretreatment baseline
Experimental: The objective of these experiments was to assess the potential of the GRF analogs as anabolic agents.
Therefore, in order to investigate the anabolic potency of the fatty acid-GRF analogs, their ability to increase IGF-I levels following repeated S.C. administrations in pig was evaluated.
26 Landrace x Yorkshire castrated male pigs (40-45 kg BW) were randomly distributed into 4 experimental groups:
Each animal was injected BID (twice a day) subcutaneously for 4 consecutive days. One blood sample was collected each morning prior to the first injection of the day, and the day after the last injection, for IGF-I measurement.
40 Landrace x Yorkshire castrated male pigs (40-45 kg BW) were randomly distributed into 5 experimental groups:
(§2) Each animal was injected BID (twice a day) subcutaneously for 5 consecutive days. One blood sample was collected each morning prior to the first injection of the day, and the day after the last injection, for IGF-I measurement.
48 Landrace x Yorkshire castrated male pigs (40-45 kg BW) were randomly distributed into 6 experimental groups:
as §2, with “The selected doses were 30 μg/kg for hGRF(1-44)NH2 analogs and 20 μg/kg for hGRF(1-29)NH2 analogs, which give identical doses on a molar basis. Each” for “Each”, “measurements.” for “measurement.”
IGF-I levels were measured in pig serum by double antibody radioimmunoassay after formic acid-acetone extraction, as previously described (Abribat T. et al., 1993, J. Endocrinol., 39:583-589). The extraction prior to radioimmunoassay is a necessary step to remove endogenous IGF-binding proteins.
In both experiments, the IGF-I data were analyzed by a two way repeated measure analysis of variance, with day and treatment (GRF analog) as sources of variation. Multiple comparison procedures were there run (Student-Newman Keuls method). A P<0.05 was considered as statistically significant.

[4] = system: pig serum GH; assay: Subcutaneous GH-releasing potency in pigs (Example IV); type: in vivo, pigs (Landrace x Yorkshire); conditions: for effect on GH area under the curve, 0 to 420 minutes following injection: S.C., FIG. 5
Experimental: This experiment was conducted to test the S.C. acute GH-releasing potency of (Hexenoyl trans-3)0 hGRF (1-29) NH2, a GRF analog, in a model physiologically close to human and to compare it to that of hGRF(1-29)NH2.
ADMINISTRATION: Subcutaneous acute injection.
as §1
DESIGN: Thirty six (36) pigs (4 spare animals) were cannulated (a catheter surgically implanted in one jugular vein) within one week, before the study. On days 1 and 7, cannulated animals were randomly distributed into 8 groups (n=4 pigs per group).
Blood samples for pGH assay were collected every 20 min from 1 hour before to 7 hours after GRF injections, (n=25 samples). Blood samples were allowed to clot at +4CC. Serum is harvested by centrifugation, stored at −20° C. and submitted to pGH assays.

[5] = system: IGF-1 levels in pig sera; assay: Effect of hGRF(1-44)NH2 analogs on IGF-1 levels following S.C. chronic administration in growing male pigs (Example XI, IRMA); type: in vivo
Experimental: The objective of this experiment was to compare the effects of 8 different hGRF(1-44)NH2 analogues including TH 9507 on IGF-1 levels following S.C. chronic administration in growing male pigs.
Animal procedures were conducted as described in the protocol GRF-30 submitted Apr. 30, 1999, with the following modification: only 8 GRF analogues, including TH 9507, were provided by the sponsor. Accordingly, the study was performed on 30 pigs.
Laboratory procedures were conducted as follow: IGF-l levels were measured in pig sera using a commercial kit (DSL-5600) purchased from Diagnostic Systems Laboratories Inc., Tex., USA. Briefly, IGF-1 levels are quantified using a two-site immunoradiometric assay (IRMA) following acid-ethanol extraction.
Statistical analysis: IGF-1 data were subjected to a two-way repeated measures analysis of variance, with time (day 1, 3 or 6) and treatments (A to J) as variation factors pairwise multiple comparison procedures were then run by the Student-Newman-Keuls method. All statistical procedures were performed using the computerized SigmaStat software (Jandel Scientific). A P<0.05 was considered statistically significant.

[6] = Experiment 1, 20 μg/kg BID SC × 4 days, mean of 6 to 7
[7] = Experiment 2, 40 μg/kg BID SC × 5 days, mean of 8
[8] = Experiment 3, 30 μg/kg BID SC × 5 days, mean of 8

hGRF (1-29)NH2 [hGRF(1-29)NH2, reference compound]
degradation in a serum medium [1]: rapidly degraded | effect on GH area under the curve (0 to 300 minutes following injection) ([2]; I.V., FIG. 3): significant effect on GH secretion | duration of GH release following injection ([2]; one intravenous injection, FIG. 2): approximately 60 minutes | effect on IGF-I levels ([3]; Experiment 1, 20 μg/kg BID SC × 4 days): ineffective | effect on IGF-I levels ([3]; Experiment 1, 20 μg/kg BID SC × 4 days, listed as Human GRF(1-29)NH2): no effect on IGF-I levels | serum IGF-I, Day 2 [3, 6]: 235 ng/mL | serum IGF-I, Day 3 [3, 6]: 263 ng/mL | serum IGF-I, Day 4 [3, 6]: 258 ng/mL | serum IGF-I, Day 5 [3, 6]: 262 ng/mL | serum IGF-I, Day 1 (pretreatment) [3, 6]: 252 ng/mL | serum IGF-I levels ([3]; Experiment 2, 40 μg/kg BID SC × 5 days): remained stable | serum IGF-I, Day 2 [3, 7]: 243 ng/mL | serum IGF-I, Day 3 [3, 7]: 267 ng/mL | serum IGF-I, Day 4 [3, 7]: 275 ng/mL | serum IGF-I, Day 5 [3, 7]: 267 ng/mL | serum IGF-I, Day 6 [3, 7]: 256 ng/mL | serum IGF-I, Day 1 (pretreatment) [3, 7]: 244 ng/mL | effect on GH area under the curve, 0 to 420 minutes following injection ([4]; 1.25 μg/kg): did not induce any significant GH response | effect on GH area under the curve, 0 to 420 minutes following injection ([4]; 5 μg/kg): did not induce any significant GH response | effect on GH area under the curve, 0 to 420 minutes following injection ([4]; 20 μg/kg): did not induce any significant GH response | duration of GH response following administration ([4]; one subcutaneous injection, 5 μg/kg, FIG. 4): ≤ 60 min

TH 9507: one of 8 different hGRF(1-44)NH2 analogues provided by the sponsor; structure not stated ({Hexenoyl(3E)}-YADAIFTNSYRKVLGQLSARKLLQDIMSRQQGESNQERGARARL-NH2)
IGF-1 levels on day 6 compared to basal levels on day 1 ([5]; S.C. chronic administration in growing male pigs, FIG. 7): significantly increased IGF-1 levels | IGF-1 levels following 5 days of injection ([5]; S.C. chronic administration in growing male pigs, saline group 190.1±21.0 ng/ml): 279.1 ± 28.4 ng/mL

hGRF(1-44)NH2 (YADAIFTNSYRKVLGQLSARKLLQDIMSRQQGESNQERGARARL-NH2) [reference compound]
effect on IGF-I levels ([3]; Experiment 3, 30 μg/kg BID SC × 5 days, except a significant effect on day 5, not sustained on day 6): little or no effect on IGF-I levels | serum IGF-I, Day 2 [3, 8]: 254 ng/mL | serum IGF-I, Day 3 [3, 8]: 285 ng/mL | serum IGF-I, Day 4 [3, 8]: 297 ng/mL | serum IGF-I, Day 5 [3, 8]: 303 ng/mL | serum IGF-I, Day 6 [3, 8]: 296 ng/mL | serum IGF-I, Day 1 (pretreatment) [3, 8]: 245 ng/mL | variations of IGF-1 concentrations in the study period ([5]; injected subcutaneously in pigs twice a day at 10 ug/kg, FIG. 7): not able to induce any significant increase in IGF-1 levels

Source: patent US6458764B1, “GRF analogs with increased biological potency” (Theratechnologies Inc., priority 1995, dated 2002)
